IC50 data for ten compounds are collected here from patent publication US10227296B2, “Bis(sulfonamide) derivatives and their use as mPGES inhibitors” (Acturum Real Estate AB, priority 2014, dated 2019).

Molecules are shown by their SMILES.

The test system of assay [1] is mPGES-1-dependent PGE2 production in human blood. Kind of assay: Whole blood assay (LPS-stimulated human blood, PGE2 production). It counts as cell-based. Conditions: 0.1 μg/ml LPS, 16 hours, 37° C., PGE2 by HTRF, read-out: hWBA. The text has this:
The whole blood assay [described by Patrignani, P. et al, Journal of Pharmacology and Experimental Therapeutics, 1994, vol. 271, pp 1705-1712] was used as the whole cell assay for testing the compounds. Whole blood provides a protein and cell rich environment for the study of biochemical efficacy of anti-inflammatory compounds, such as prostaglandin synthase inhibitors. To study the inhibitory activities of these compounds, human blood was stimulated with lipopolysaccharide (LPS) for typically 16 hours to induce mPGES-1 expression, after which the concentration of produced PGE2 was measured by competitive-immuno assay (homogeneous time-resolved fluorescence, HTRF) as read out for effectiveness against mPGES-1-dependent PGE2 production.
Human blood collected from human volunteers in heparinized tubes was incubated with 100 μM acetyl salicylic acid, in order to inhibit the constitutively expressed cyclooxygenase (COX)-1/COX-2 enzymes, and then stimulated with 0.1 μg/ml LPS to induce the expression of enzymes along the COX-2 pathway, e.g. COX-2 and mPGES-1. 100 μL of this blood was added to the wells of a 384-well plate containing 1 μL DMSO solutions of compounds typically in the final concentration range 316 μM to 0.01 μM. Naproxen was used as reference compound. The mix was incubated at 37° C. for 16 hours. Plasma was harvested by centrifugation and stored at −70° C. until further analysis of PGE2 levels. For the calculations, the 0%-activity value was represented by blood treated with acetyl salicylic acid, LPS and the reference compound (1 mM Naproxen). The 100%-activity value was represented by blood treated with aspirin, LPS and DMSO. [Reference: Patrignani, P. et al, Journal of Pharmacology and Experimental Therapeutics, 1994, vol. 271, pp 1705-1712]. The PGE2 formed was quantified, after dilution in a weak potassium phosphate buffer (50 mM, pH 6.8) containing 0.2% BSA (w/v), by use of a commercial HTRF based kit (catalogue #62PG2PEC or #62P2APEC from Cisbio International). IC50 values were then determined using standard procedures.
On the technique in general: In TR-FRET formats the signal depends on donor and acceptor labels being close together.

Another assay addresses T1, human mPGES-1 (Homo sapiens, UniProt O14684).
T1 construct: host or cells: microsomes
T1 sequence (O14684 1-152): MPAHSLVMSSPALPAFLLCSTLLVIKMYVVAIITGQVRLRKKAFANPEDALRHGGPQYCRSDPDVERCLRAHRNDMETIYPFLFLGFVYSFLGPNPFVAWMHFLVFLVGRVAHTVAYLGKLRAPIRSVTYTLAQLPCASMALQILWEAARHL
As to the kind of experiment: Microsomal prostaglandin E synthase biochemical assay. Conditions: microsomes containing human mPGES-1, PGH2 10.8 μM, GSH 2.5 mM, pH 6.8; average of at least n=2. Here is the method:
Compounds were tested as inhibitors of microsomal prostaglandin E synthase activity in microsomal prostaglandin E synthase assays and whole cell assays. These assays measure prostaglandin E2 (PGE2) synthesis, which is taken as a measure of prostaglandin E synthase activity. Microsomal prostaglandin E synthase biochemical assays used microsomal prostaglandin E synthase-1 in microsomal preparations. The source of the microsomes can be for example interleukin-1β-stimulated human A549 cells (which express human mPGES-1) or Sf9 cells transfected with plasmids encoding human mPGES-1 cDNA.
A solution of test compound was added to a diluted microsome preparation containing human mPGES-1 and pre-incubated for 15 minutes in potassium phosphate buffer pH 6.8 with cofactor glutathione (GSH). Corresponding solutions without test compound were used as positive controls, and corresponding solutions without test compound and without microsomes were used as negative controls. The enzymatic reaction was then started by addition of the substrate PGH2 in an organic solution (dry acetonitrile).
The typical reaction conditions of the enzymatic reaction were thus: Test compound: ranging from 60 μM to 0.002 μM, or zero in positive and negative controls; potassium phosphate buffer pH 6.8: 50 mM; GSH: 2.5 mM; mPGES-1-containing microsomes: 2 μg/mL (sample and positive controls) or 0 μg/mL (negative control); PGH2: 10.8 μM; Acetonitrile: 7.7% (v/v); DMSO: 0.6% (v/v). The reaction was stopped after one minute by adding an acidic solution (pH 1.9) of ferric chloride and citrate (final concentrations 7 mM and 47 mM respectively), by which the PGH2 was sequestered (the PGH2 is reduced to mainly 12-hydroxy heptadecatrineoic acid (12-HHT) which is not detected by the subsequent PGE2 detection step). The resulting solution was then pH neutralized by addition of potassium phosphate buffer, prior to diluting an aliquot of the resulting solution in a weak potassium phosphate buffer (50 mM, pH 6.8) containing 0.2% BSA (w/v). [Adapted from Jacobsson et al., Proc. Natl. Acad. Sci. USA, 1999, vol. 96, pp. 7220-7225] The PGE2 formed was quantified by use of a commercial HTRF based kit (catalogue #62PG2PEC or #62P2APEC from Cisbio International). 100% activity was defined as the PGE2 production in positive controls subtracted by the PGE2 production in the negative controls. IC50 values were then determined using standard procedures.
The potency is expressed as IC50 and the value indicated is an average of at least n=2.

In the case of `N#Cc1ccccc1CCOc1cc(Cl)ccc1CCS(=O)(=O)Nc1ccccc1S(N)(=O)=O` [Example 5, 2-(2-(4-chloro-2-(2-cyanophenethoxy)phenyl)ethylsulfonamido)benzenesulfonamide], the values for the IC50 (in assay [1]; at human mPGES-1) were 0.0104 µM and 0.0041 µM, respectively.
In the case of `Cn1ccc2c(CCOc3cc(Cl)ccc3CCS(=O)(=O)Nc3ccccc3S(N)(=O)=O)cccc21` [Example 8, 2-(2-(4-chloro-2-(2-(1-methyl-1H-indol-4-yl)ethoxy)phenyl)ethylsulfonamido)benzenesulfonamide], the IC50 came out at 0.0336 µM in assay [1] and 0.0073 µM against human mPGES-1.
The like results for `N#Cc1cccc(CCOc2cc(Cl)ccc2CCS(=O)(=O)Nc2ccccc2S(N)(=O)=O)c1` [Example 6, 2-(2-(4-chloro-2-(3-cyanophenethoxy)phenyl)ethylsulfonamido)benzenesulfonamide] were, in that order, 0.0774 µM and 0.0136 µM.
On to `NS(=O)(=O)c1cc(CO)ccc1NS(=O)(=O)CCc1ccc(Cl)cc1OCCc1ccccc1` [Example 10, 2-(2-(4-chloro-2-phenethoxyphenyl)ethylsulfonamido)-5-(hydroxymethyl)-benzenesulfonamide], for which the IC50 in assay [1] came to 0.0106 µM; against human mPGES-1, 0.00797 µM.
As to `COc1ccc(CCOc2cc(Cl)ccc2CCS(=O)(=O)Nc2ccccc2S(N)(=O)=O)cc1` [Example 4, 2-(2-(4-chloro-2-(4-methoxyphenethoxy)phenyl)ethylsulfonamido)benzenesulfonamide], the IC50 in assay [1] was found to be 0.0703 µM; against human mPGES-1, 0.0264 µM.
The like results for `NS(=O)(=O)c1ccccc1NS(=O)(=O)CCc1ccc(Cl)cc1OCCc1ccccc1` [Example 1, 2-(2-(4-chloro-2-phenethoxyphenyl)ethylsulfonamido)benzenesulfonamide] were, in that order, 0.0508 µM and 0.00696 µM.
On to `N#Cc1ccc(CCOc2cc(Cl)ccc2CCS(=O)(=O)Nc2ccccc2S(N)(=O)=O)cc1` [Example 7, 2-(2-(4-chloro-2-(4-cyanophenethoxy)phenyl)ethylsulfonamido)benzenesulfonamide], for which the figures for the IC50 (in assay [1]; at human mPGES-1) were 0.0765 µM and 0.0199 µM, respectively.
The like results for `COc1cccc(CCOc2cc(Cl)ccc2CCS(=O)(=O)Nc2ccccc2S(N)(=O)=O)c1` [Example 3, 2-(2-(4-chloro-2-(3-methoxyphenethoxy)phenyl)ethylsulfonamido)benzenesulfonamide] were, in that order, 0.09 µM and 0.0064 µM.
The like results for `COc1ccccc1CCOc1cc(Cl)ccc1CCS(=O)(=O)Nc1ccccc1S(N)(=O)=O` [Example 2, 2-(2-(4-chloro-2-(2-methoxyphenethoxy)phenyl)ethylsulfonamido)benzenesulfonamide] were, in that order, 0.0034 µM and 0.0037 µM.
As for `NS(=O)(=O)c1ccccc1NS(=O)(=O)CCc1ccc(Cl)cc1OCCc1cccc2c1CC(=O)N2` [Example 9, 2-(2-(4-chloro-2-(2-(2-oxoindolin-4-yl)ethoxy)phenyl)ethylsulfonamido)benzenesulfonamide], the figures for the IC50 (in assay [1]; against human mPGES-1) were 0.0843 µM and 0.0119 µM, respectively.
